These results are taken from patent US20230235378A1, “LZHEIMER'S DISEASE-SPECIFIC ALTERATIONS OF PROTEIN KINASE C EPSILON (PKC-EPSILON PROTEIN LEVELS” (WEST VIRGINIA UNIVERSITY BOARD OF GOVERNORS ON BEHALF OF …, priority 2010, published 2023).

The target of data set [1] is T1, PKCε (Homo sapiens, UniProt Q02156).
T1 construct: purchased Calbiochem (San Diego, Calif.)
T1 sequence (Q02156 1-737): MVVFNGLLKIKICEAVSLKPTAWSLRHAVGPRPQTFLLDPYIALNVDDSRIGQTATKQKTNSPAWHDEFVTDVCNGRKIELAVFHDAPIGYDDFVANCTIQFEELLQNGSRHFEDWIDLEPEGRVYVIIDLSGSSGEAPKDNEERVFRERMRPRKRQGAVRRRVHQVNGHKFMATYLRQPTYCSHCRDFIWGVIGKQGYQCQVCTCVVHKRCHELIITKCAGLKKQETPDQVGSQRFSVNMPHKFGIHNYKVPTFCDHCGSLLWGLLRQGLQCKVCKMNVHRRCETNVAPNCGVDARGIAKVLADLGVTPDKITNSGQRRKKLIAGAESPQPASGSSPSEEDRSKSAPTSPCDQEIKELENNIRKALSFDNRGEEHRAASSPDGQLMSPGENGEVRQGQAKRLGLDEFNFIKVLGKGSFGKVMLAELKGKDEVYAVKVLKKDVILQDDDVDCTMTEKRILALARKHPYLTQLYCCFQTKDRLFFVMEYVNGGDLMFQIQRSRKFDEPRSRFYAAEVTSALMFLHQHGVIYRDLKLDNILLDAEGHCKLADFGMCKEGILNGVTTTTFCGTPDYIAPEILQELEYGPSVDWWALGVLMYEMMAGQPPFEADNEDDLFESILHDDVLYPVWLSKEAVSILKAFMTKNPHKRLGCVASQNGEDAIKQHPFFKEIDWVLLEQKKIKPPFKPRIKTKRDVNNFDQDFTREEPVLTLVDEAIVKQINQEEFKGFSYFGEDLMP
To be noted: Kanno et al.; cited from earlier work.

Data set [2] concerns the target T2, PKCδ (Homo sapiens, UniProt Q05655).
T2 construct: purchased Calbiochem
In words: PKC isozyme specificity: PKCδ. Format: biochemical. The following applies: about 1-100 μM; data not shown. As to the method:
Protein Kinase C Assay. Rat hippocampal cells were cultured and scraped in 0.2 ml homogenization buffer (20 mM Tris-HCl, pH 7.4, 50 mM NaF, 1 μg/ml leupeptin, and 0.1 mM PMSF) and homogenized by sonication in a Marsonix micro-probe sonicator (5 sec, 10 W). To measure PKC, 10 μl of cell homogenate or purified PKC isozyme (purchased from Calbiochem) was incubated for 15 min at 37° C. in the presence of 10 μM histones, 4.89 mM CaCl2, 1.2 μg/μl phosphatidyl-L-serine, 0.18 μg/μl 1,2-dioctanoyl-sn-glycerol, 10 mM MgCl2, 20 mM HEPES (pH 7.4), 0.8 mM EDTA, 4 mM EGTA, 4% glycerol, 8 μg/ml aprotinin, 8 μg/ml leupeptin, and 2 mM benzamidine. 0.5 μCi [γ-32P]ATP was added and 32P-phosphoprotein formation was measured by adsorption onto phosphocellulose as described previously. Nelson and Alkon, J. Neurochemistry. 1995; 65: 2350-57. For measurements of activation by BR-101 (DCP-LA) and similar compounds, PKC activity was measured in the absence of diacylglycerol and phosphatidylserine, as described by Kanno et al., and PKC δ, ε, η, and were measured in the absence of added EGTA and CaCl2, as described by Kanno et al., J. Lipid Res. 2006; 47: 1146-50. […]
(§1) To determine their PKC isozyme specificity, the new compounds were preincubated with purified PKC for five minutes and the PKC activity was measured radiometrically.

The test system of data set [3] is Aß. Kind of data set: Aß production in N2a neuroblastoma cells transfected with human APPSwe/PS1D (Aß 1-42 ELISA). The data set is classed as cell-based, mouse. How it is done:
(§2) Aß Measurement and Cell Viability Assay. Aß was measured using an Aß 1-42 human fluorimetric ELISA kit (Invitrogen) according to the manufacturer's instructions. Results were measured in a Biotek Synergy HT microplate reader. AlamarBlue and CyQuant NF (Invitrogen) according to the manufacturer's instructions.
To measure the effects of PKC activation on Aß production, we used mouse neuro2a (N2a) neuroblastoma cells transfected with human APPSwe/PS1D, which produce large quantities of Aβ. Petanceska et al., J. Neurochem. 1996; 74: 1878-84. […] With bryostatin, which activates PKC by binding to the diacylglycerol-binding site, the inhibition was biphasic, with concentrations of 20 nM or higher producing no net effect. This may be explained by the ability of this class of PKC activators to downregulate PKC when used at high concentrations.
(An ELISA detects its analyte on a solid surface through an enzyme-linked reagent.)

A short description of data set [4]: Cell viability assay (alamar Blue and CyQuant staining). Format: cell-based. As to the method:
as §2
A general note: The colour change of resazurin is a common sign of viable cells or microbes.

The test system of data set [5] is PKC. In words: Sustained PKC activation in primary neurons. To be noted: sustained activation only observed in primary neurons. Format: cell-based, rat. How it is done:
Cell Culture. Rat hippocampal H19-7/IGF-IR cells (ATCC, Manassas, Va.) were plated onto poly-L-lysine coated plates and grown at 35° C. in DMEM/10% FCS for several days until about 50% coverage was obtained. The cells were then induced to differentiate into a neuronal phenotype by replacing the medium with 5 ml N2 medium containing 10 ng/ml basic fibroblast growth factor at 39° C. and grown in T-75 flasks at 37° C. Human SH-SY5Y neuroblastoma cells (ATCC) were cultured in 45% F 12K/45% MEM/10% FCS. Mouse N2A neuroblastoma cells were cultured in DMEM/10% FCS without glutamine. Rat hippocampal neurons from 18-day-old embryonic
Sprague Dawley rat brains were plated on 12- or 96-well plates coated with poly-D-lysine (Sigma-Aldrich, St. Louis, Mo.) in B-27 neurobasal medium containing 0.5 mM glutamine and 25 μM glutamate (Invitrogen, Carlsbad, Calif.) and cultured for three days in the medium without glutamate. […]
Protein Kinase C Assay. […] 0.5 μCi [γ-32P]ATP was added and 32P-phosphoprotein formation was measured by adsorption onto phosphocellulose as described previously. […] For measurements of activation by BR-101 (DCP-LA) and similar compounds, PKC activity was measured in the absence of diacylglycerol and phosphatidylserine, as described by Kanno et al., and PKC δ, ε, η, and were measured in the absence of added EGTA and CaCl2, as described by Kanno et al., J. Lipid Res. 2006; 47: 1146-50. […]

In data set [6] the target is T3, purified PKC (Homo sapiens, UniProt Q02156).
T3 construct: purchased Calbiochem
T3 sequence (Q02156 1-737): T1 sequence (Q02156 1-737)
Kind of data set: PKC isozyme specificity: purified PKC preincubated with compound, activity measured radiometrically. The data set is classed as biochemical. To be noted: 10 μM; data not shown. As to the method:
Protein Kinase C Assay. Rat hippocampal cells were cultured and scraped in 0.2 ml homogenization buffer (20 mM Tris-HCl, pH 7.4, 50 mM NaF, 1 μg/ml leupeptin, and 0.1 mM PMSF) and homogenized by sonication in a Marsonix micro-probe sonicator (5 sec, 10 W). To measure PKC, 10 μl of cell homogenate or purified PKC isozyme (purchased from Calbiochem) was incubated for 15 min at 37° C. in the presence of 10 μM histones, 4.89 mM CaCl2, 1.2 μg/μl phosphatidyl-L-serine, 0.18 μg/μl 1,2-dioctanoyl-sn-glycerol, 10 mM MgCl2, 20 mM HEPES (pH 7.4), 0.8 mM EDTA, 4 mM EGTA, 4% glycerol, 8 μg/ml aprotinin, 8 μg/ml leupeptin, and 2 mM benzamidine. 0.5 μCi [γ-32P]ATP was added and 32P-phosphoprotein formation was measured by adsorption onto phosphocellulose as described previously. Nelson and Alkon, J. Neurochemistry. 1995; 65: 2350-57. For measurements of activation by BR-101 (DCP-LA) and similar compounds, PKC activity was measured in the absence of diacylglycerol and phosphatidylserine, as described by Kanno et al., and PKC δ, ε, η, and were measured in the absence of added EGTA and CaCl2, as described by Kanno et al., J. Lipid Res. 2006; 47: 1146-50. Low concentrations of Ca2+ are used because high Ca2+ interacts with the PKC phosphatidylserine binding site and prevents activation. For measurements of bryostatin activation, 1,2-diacylglycerol was omitted unless otherwise stated.
as §1

T2 sequence (Q05655 whole entry): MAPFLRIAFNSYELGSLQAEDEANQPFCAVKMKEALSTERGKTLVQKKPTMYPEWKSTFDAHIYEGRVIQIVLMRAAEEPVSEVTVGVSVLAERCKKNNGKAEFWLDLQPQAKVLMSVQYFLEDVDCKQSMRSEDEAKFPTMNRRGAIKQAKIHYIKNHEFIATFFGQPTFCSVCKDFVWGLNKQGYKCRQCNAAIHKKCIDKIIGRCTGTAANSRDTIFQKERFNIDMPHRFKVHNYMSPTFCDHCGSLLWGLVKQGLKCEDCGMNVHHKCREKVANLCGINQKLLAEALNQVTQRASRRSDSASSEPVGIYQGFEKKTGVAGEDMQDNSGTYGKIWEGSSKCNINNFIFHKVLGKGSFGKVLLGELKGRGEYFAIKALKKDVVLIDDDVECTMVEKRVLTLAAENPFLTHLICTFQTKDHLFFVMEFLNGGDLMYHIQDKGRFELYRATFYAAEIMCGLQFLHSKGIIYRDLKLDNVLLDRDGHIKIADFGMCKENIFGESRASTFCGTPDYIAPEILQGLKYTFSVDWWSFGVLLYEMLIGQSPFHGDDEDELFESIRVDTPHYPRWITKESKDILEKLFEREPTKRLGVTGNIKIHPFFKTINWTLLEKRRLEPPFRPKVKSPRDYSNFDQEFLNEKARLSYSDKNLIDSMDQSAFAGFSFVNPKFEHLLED

`CCCCCC1CC1CC1CC1CCCCCCCC(=O)O` (stereo not shown) [BR-101, 8-[2-(2-pentyl-cyclopropylmethyl)-cyclopropyl]-octanoic acid]: in data set [1], the “potency for PKCε over other PKC isozymes” value is listed as “greater than 7 fold”. In addition, the “effect on PKCδ at higher concentrations” value in data set [2] is recorded as “partially inhibited”. For the same molecule, the “levels of both intracellular and secreted Aß” value in data set [3] (24 h incubation, various concentrations) is “markedly reduced”. In data set [3] (concentrations up to 10 to 100 μM, no evidence of downregulation at higher concentrations), the “concentration dependence of Aß inhibition” value is given as “monotonically increasing inhibition”. Further, the “effect on cell survival or proliferation” value in data set [4] is recorded as “no effect”. Besides, the “duration of PKC elevation” value in data set [5] is “remained elevated for at least four hours”. In addition, in data set [6], the “activation of PKC” value is given as “effective activator”.
